Test results reported in patent US20190010158A1, “ANTITUMOR EFFECT POTENTIATOR COMPRISING PYRROLOPYRIMIDINE COMPOUND” (TAIHO PHARMACEUTICAL CO., LTD, priority 2015, published 2019).
Several values for one entry are separate records, joined by “and”; a condition that tells them apart may be missing. Identical values can stand only once. Like-named read-outs stand apart in the source and are kept apart here.

Legend:
[1] = test system: tumor cell lines shown in Table 42; experiment: Example 11: combined use with antimetabolite, cell growth inhibition test (IC50 ratio, CI); assay type: cell-based
[2] = test system: tumor cell lines shown in Table 26; experiment: Example 3: combined use with serine-threonine kinase inhibitor, cell growth inhibition test (IC50 ratio, CI); settings: for Comprehensive Evaluation: combined use with Reference Example Compound 55
[3] = test system: human acute T lymphoblastic leukemia CCRF-CEM cell lines; experiment: Cell growth inhibition 1 (CellTiter-Glo); assay type: cell-based; settings: culture with test compound 72 hours
[4] = TMD-8, IC50 of Reference Example Compound 55 : IC50 of other compound = 1:value
[5] = A431, IC50 of Reference Example Compound 55 : IC50 of other compound = 1:value
[6] = A431, combined use with Reference Example Compound 55
[7] = A549, IC50 of Reference Example Compound 55 : IC50 of other compound = 1:value

## Sc1ncnc2nc[nH]c12 [6-Mercaptopurine, 6-mercaptopurine]
[1]; MM.1S, IC50 of Reference Example Compound 55 : IC50 of other compound = 1:value
  IC50 Ratio: 169
[1]; MM.1S, Reference Example Compound 55:other compound 1:100, at ED50
  CI: 0.61
[1]; MM.1S, Reference Example Compound 55:other compound 1:300, at ED50
  CI: 0.80
[1]; MM.1S, combined use with Reference Example Compound 55
  Comprehensive Evaluation: Moderate

## Nc1ccn([C@@H]2O[C@H](CO)[C@@H](O)[C@@H]2O)c(=O)n1 [Cytarabine, cytarabine]
[1]
  CI: 0.52 and 0.66
  IC50 Ratio: 48
[1]; HCT116, combined use with Reference Example Compound 55
  Comprehensive Evaluation: Synergism (0.3-0.7)

## C[C@H](Nc1ncnc2nc[nH]c12)c1cc2cccc(Cl)c2c(=O)n1-c1ccccc1 [Duvelisib, duvelisib]
[2]; [4]
  IC50 Ratio: 2
[2]; TMD-8, Reference Example Compound 55:other compound 1:1.2, at ED50
  CI: 0.42
[2]; TMD-8, Reference Example Compound 55:other compound 1:3.7, at ED50
  CI: 0.43
[2]; TMD-8
  Comprehensive Evaluation: Synergism (0.3-0.7)

## CO[C@H]1C[C@@H]2CC[C@@H](C)[C@@](O)(O2)C(=O)C(=O)N2CCCC[C@H]2C(=O)O[C@H]([C@H](C)C[C@@H]2CC[C@@H](OCCO)[C@H](OC)C2)CC(=O)[C@H](C)/C=C(\C)[C@@H](O)[C@@H](OC)C(=O)[C@H](C)C[C@H](C)/C=C/C=C/C=C/1C [Everolimus, everolimus]
[2]; VMRC-RCW, IC50 of Reference Example Compound 55 : IC50 of other compound = 1:value
  IC50 Ratio: 6
[2]; VMRC-RCW
  Comprehensive Evaluation: Synergism (0.3-0.7)

## O=c1[nH]cc(F)c(=O)[nH]1 [Fluorouracil, fluorouracil]
[1]; [5]
  IC50 Ratio: 0.8
[1]; A431, Reference Example Compound 55:other compound 1:0.56, at ED50
  CI: 0.44
[1]; A431, Reference Example Compound 55:other compound 1:1.67, at ED50
  CI: 0.20
[1]; [6]
  Comprehensive Evaluation: Synergism (0.3-0.7)

## Nc1ccn([C@@H]2O[C@H](CO)[C@@H](O)C2(F)F)c(=O)n1 [Gemcitabine, gemcitabine]
[1]; [5]
  IC50 Ratio: 0.01
[1]; A431, Reference Example Compound 55:other compound 1:0.007, at ED50
  CI: 0.70
[1]; A431, Reference Example Compound 55:other compound 1:0.02, at ED50
  CI: 0.49
[1]; [6]
  Comprehensive Evaluation: Synergism (0.3-0.7)

## CC[C@H](Nc1ncnc2[nH]cnc12)c1nc2cccc(F)c2c(=O)n1-c1ccccc1 [Idelalisib, idelalisib]
[2]; [4]
  IC50 Ratio: 23
[2]; TMD-8, Reference Example Compound 55:other compound 1:11, at ED50
  CI: 0.57
[2]; TMD-8, Reference Example Compound 55:other compound 1:33, at ED50
  CI: 0.64
[2]; TMD-8
  Comprehensive Evaluation: Synergism (0.3-0.7)

## NC1(c2ccc(-c3nc4ccn5c(=O)[nH]nc5c4cc3-c3ccccc3)cc2)CCC1 [MK2206]
[2]; [7]
  IC50 Ratio: 5
[2]; A549, Reference Example Compound 55:other compound 1:3, at ED50
  CI: 0.31
[2]; A549, Reference Example Compound 55:other compound 1:9, at ED50
  CI: 0.35
[2]; A549
  Comprehensive Evaluation: Synergism (0.3-0.7)

## Nc1nc2[nH]cc(CCc3ccc(C(=O)N[C@@H](CCC(=O)O)C(=O)O)cc3)c2c(=O)[nH]1 [Pemetrexed, pemetrexed]
[1]
  CI: 0.73 and 0.55
  Comprehensive Evaluation: Moderate
  IC50 Ratio: 34

## CO[C@H]1C[C@@H]2CC[C@@H](C)[C@@](O)(O2)C(=O)C(=O)N2CCCC[C@H]2C(=O)O[C@H]([C@H](C)C[C@@H]2CC[C@@H](O)[C@H](OC)C2)CC(=O)[C@H](C)/C=C(\C)[C@@H](O)[C@@H](OC)C(=O)[C@H](C)C[C@H](C)/C=C/C=C/C=C/1C [Rapamycin, rapamycin]
[2]; [7]
  IC50 Ratio: 0.1
[2]; A549
  Comprehensive Evaluation: Synergism (0.3-0.7)

## CCCOc1cccc(F)c1C#Cc1cn([C@@H]2O[C@H](CNS(N)(=O)=O)[C@@H](O)[C@H]2O)c2ncnc(N)c12 [Reference Example 60, 4-Amino-7-[(2R,3R,4S,5R)-3,4-dihydroxy-5-[(sulfamoylamino)methyl]tetrahydrofuran-2-yl]-5-[2-(2-fluoro-6-propoxy-phenyl)ethynyl]pyrrolo[2,3-d]pyrimidine]
[3]
  IC50: 5.1 nM

## CCSc1cccc(F)c1C#Cc1cn([C@@H]2O[C@H](CNS(N)(=O)=O)[C@@H](O)[C@H]2O)c2ncnc(N)c12 [Reference Example 66, 4-Amino-7-[(2R,3R,4S,5R)-3,4-dihydroxy-5-[(sulfamoylamino)methyl]tetrahydrofuran-2-yl]-5-[2-(2-ethylsulfanyl-6-fluoro-phenyl)ethynyl]pyrrolo[2,3-d]pyrimidine]
[3]
  IC50: 4.3 nM

## CCS(=O)(=O)c1cc(N2CCCC2)cc(F)c1C#Cc1cn([C@@H]2O[C@H](CNS(N)(=O)=O)[C@@H](O)[C@H]2O)c2ncnc(N)c12 [Reference Example 70, 4-Amino-7-[(2R,3R,4S,5R)-3,4-dihydroxy-5-[(sulfamoylamino)methyl]tetrahydrofuran-2-yl]-5-[2-(2-ethylsulfonyl-6-fluoro-4-pyrrolidin-1-yl-phenyl)ethynyl]pyrrolo[2,3-d]pyrimidine]
[3]
  IC50: 15 nM

## COc1cncc(F)c1C#Cc1cn([C@@H]2O[C@H](CNS(N)(=O)=O)[C@@H](O)[C@H]2O)c2ncnc(N)c12 [Reference Example 71, 4-Amino-7-[(2R,3R,4S,5R)-3,4-dihydroxy-5-[(sulfamoylamino)methyl]tetrahydrofuran-2-yl]-5-[2-(3-fluoro-5-methoxy-4-pyridyl)ethynyl]pyrrolo[2,3-d]pyrimidine]
[3]
  IC50: 45 nM

## CCS(=O)(=O)c1cc(N2CC[C@@H](O)C2)cc(F)c1C#Cc1cn([C@@H]2O[C@H](CNS(N)(=O)=O)[C@@H](O)[C@H]2O)c2ncnc(N)c12 [Reference Example 72, 4-Amino-7-[(2R,3R,4S,5R)-3,4-dihydroxy-5-[(sulfamoylamino)methyl]tetrahydrofuran-2-yl]-5-[2-[2-ethylsulfonyl-6-fluoro-4-[(3R)-3-hydroxypyrrolidin-1-yl]phenyl]ethynyl]pyrrolo[2,3-d]pyrimidine]
[3]
  IC50: 88 nM

## Nc1ncnc2c1c(C#Cc1c(F)cccc1Cl)cn2[C@@H]1O[C@H](CNS(N)(=O)=O)[C@@H](O)[C@H]1O [Reference Example 73, 4-Amino-5-[2-(2-chloro-6-fluoro-phenyl)ethynyl]-7-[(2R,3R,4S,5R)-3,4-dihydroxy-5-[(sulfamoylamino)methyl]tetrahydrofuran-2-yl]pyrrolo[2,3-d]pyrimidine]
[3]
  IC50: 71 nM

## Nc1ncnc2c1c(C#Cc1cccc3c1S(=O)(=O)CCC3)cn2[C@@H]1O[C@H](CNS(N)(=O)=O)[C@@H](O)[C@H]1O [Reference Example 83, 4-Amino-7-[(2R,3R,4S,5R)-3,4-dihydroxy-5-[(sulfamoylamino)methyl]tetrahydrofuran-2-yl]-5-[2-(1,1-dioxo-3,4-dihydro-2H-thiochromen-8-yl)ethynyl]pyrrolo[2,3-d]pyrimidine]
[3]
  IC50: 56 nM

## Nc1ncnc2c1c(C#Cc1c(F)cccc1S(N)(=O)=O)cn2[C@@H]1O[C@H](CNS(N)(=O)=O)[C@@H](O)[C@H]1O [Reference Example 84, 2-[2-[4-Amino-7-[(2R,3R,4S,5R)-3,4-dihydroxy-5-[(sulfamoylamino)methyl]tetrahydrofuran-2-yl]pyrrolo[2,3-d]pyrimidin-5-yl]ethynyl]-3-fluoro-benzenesulfonamide]
[3]
  IC50: 230 nM

## N#Cc1cccc(F)c1C#Cc1cn([C@@H]2O[C@H](CNS(N)(=O)=O)[C@@H](O)[C@H]2O)c2ncnc(N)c12 [Reference Example 85, 4-Amino-5-[2-(2-cyano-6-fluoro-phenyl)ethynyl]-7-[(2R,3R,4S,5R)-3,4-dihydroxy-5-[(sulfamoylamino)methyl]tetrahydrofuran-2-yl]pyrrolo[2,3-d]pyrimidine]
[3]
  IC50: 38 nM

## Nc1ncnc2c1c(C#Cc1c(F)cccc1OCC1CC1)cn2[C@@H]1O[C@H](CNS(N)(=O)=O)[C@@H](O)[C@H]1O [Reference Example 86, 4-Amino-5-[2-[2-(cyclopropylmethoxy)-6-fluoro-phenyl]ethynyl]-7-[(2R,3R,4S,5R)-3,4-dihydroxy-5-[(sulfamoylamino)methyl]tetrahydrofuran-2-yl]pyrrolo[2,3-d]pyrimidine]
[3]
  IC50: 5.5 nM

## CSc1cccc(F)c1C#Cc1cn([C@@H]2C[C@H](CNS(N)(=O)=O)[C@@H](O)[C@H]2O)c2ncnc(N)c12 [Reference Example 98, 4-Amino-7-[(1R,2S,3R,4R)-2,3-dihydroxy-4-[(sulfamoylamino)methyl]cyclopentyl]-5-[2-(2-fluoro-6-methylsulfanyl-phenyl)ethynyl]pyrrolo[2,3-d]pyrimidine]
[3]
  IC50: 7.3 nM

## Nc1ncnc2c1c(C#Cc1c(F)cc(N3CC[C@@H](O)C3)cc1F)cn2[C@@H]1C[C@H](CNS(N)(=O)=O)[C@@H](O)[C@H]1O [Reference Example 120, 4-Amino-5-[2-[2,6-difluoro-4-[(3R)-3-hydroxypyrrolidin-1-yl]phenyl]ethynyl]-7-[(1R,2S,3R,4R)-2,3-dihydroxy-4-[(sulfamoylamino)methyl]cyclopentyl]pyrrolo[2,3-d]pyrimidine]
[3]
  IC50: 35 nM

## Nc1ncnc2c1c(C#Cc1cccc3c1S(=O)(=O)CCC3)cn2[C@@H]1C[C@H](CNS(N)(=O)=O)[C@@H](O)[C@H]1O [Reference Example 123, 4-Amino-7-[(1R,2S,3R,4R)-2,3-dihydroxy-4-[(sulfamoylamino)methyl]cyclopentyl]-5-[2-(1,1-dioxo-3,4-dihydro-2H-thiochromen-8-yl)ethynyl]pyrrolo[2,3-d]pyrimidine]
[3]
  IC50: 97 nM

## CC[C@@H]1C(=O)N(C)c2cnc(Nc3ccc(C(=O)N[C@H]4CC[C@H](N5CCN(CC6CC6)CC5)CC4)cc3OC)nc2N1C(C)C [Volasertib, volasertib]
[2]; HL-60, IC50 of Reference Example Compound 55 : IC50 of other compound = 1:value
  IC50 Ratio: 14
[2]; HL-60, Reference Example Compound 55:other compound 1:11, at ED50
  CI: 0.95
[2]; HL-60, Reference Example Compound 55:other compound 1:33, at ED50
  CI: 0.82
[2]; HL-60
  Comprehensive Evaluation: Additive (0.9-1.10)

## AZD5363
[2]
  CI: 0.33 and 0.38
  IC50 Ratio: 67
